Laboratory results published in PMC2772130 (Chemical research in toxicology, 2008).

Tests used:
P450 1A2 [1] = biological target: T1, P450 1A2 (Homo sapiens, UniProt P05177); experiment: Quenching of P450 fluorescence with inhibitors, P450 1A2; format: binding
T1 sequence (P05177 1-516): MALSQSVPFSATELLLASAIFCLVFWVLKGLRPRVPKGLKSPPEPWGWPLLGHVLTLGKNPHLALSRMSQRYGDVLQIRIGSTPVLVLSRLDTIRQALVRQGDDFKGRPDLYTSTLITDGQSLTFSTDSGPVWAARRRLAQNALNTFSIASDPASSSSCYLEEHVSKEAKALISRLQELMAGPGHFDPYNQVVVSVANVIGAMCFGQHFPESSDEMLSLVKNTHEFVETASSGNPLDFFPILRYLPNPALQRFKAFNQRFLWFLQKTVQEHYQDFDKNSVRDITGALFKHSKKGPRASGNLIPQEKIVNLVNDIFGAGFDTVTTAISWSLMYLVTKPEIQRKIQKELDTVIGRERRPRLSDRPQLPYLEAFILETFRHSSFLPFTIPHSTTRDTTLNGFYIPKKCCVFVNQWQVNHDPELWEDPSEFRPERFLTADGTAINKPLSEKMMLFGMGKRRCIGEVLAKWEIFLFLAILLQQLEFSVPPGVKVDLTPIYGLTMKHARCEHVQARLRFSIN

P450 1B1 [2] = biological target: T2, P450 1B1 (Homo sapiens, UniProt Q16678); experiment: Quenching of PAH; conditions: for interaction with P450 1B1 (quenching of inhibitor fluorescence): inhibitors at 10 nM; for half-maximal time (t1/2) to decrease B[a]P emission: 10 nM P450 1B1, 25 °C
T2 sequence (Q16678 1-543): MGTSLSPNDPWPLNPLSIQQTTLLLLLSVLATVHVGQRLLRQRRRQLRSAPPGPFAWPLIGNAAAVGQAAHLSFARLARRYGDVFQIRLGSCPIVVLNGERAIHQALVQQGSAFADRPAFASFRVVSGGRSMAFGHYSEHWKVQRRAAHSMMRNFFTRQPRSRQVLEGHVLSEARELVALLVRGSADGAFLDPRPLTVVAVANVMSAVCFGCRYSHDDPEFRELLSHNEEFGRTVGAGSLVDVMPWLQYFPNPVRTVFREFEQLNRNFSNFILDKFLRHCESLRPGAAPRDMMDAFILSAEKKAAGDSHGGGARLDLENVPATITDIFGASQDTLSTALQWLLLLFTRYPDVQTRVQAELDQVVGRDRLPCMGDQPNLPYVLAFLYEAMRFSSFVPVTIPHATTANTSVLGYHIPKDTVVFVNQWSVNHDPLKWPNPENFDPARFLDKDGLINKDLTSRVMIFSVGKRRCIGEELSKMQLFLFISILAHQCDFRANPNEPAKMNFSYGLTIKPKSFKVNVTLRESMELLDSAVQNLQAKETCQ

P450 1B1 [3] = biological target: T2, P450 1B1; experiment: Quenching of P450 1B1; format: binding; conditions: extrapolated % quenching; 1.0 μM P450 1B1
P450 1B1 [4] = biological target: T2, P450 1B1; experiment: Inhibition of P450 1B1-dependent 7-ethoxyresorufin O-deethylation; conditions: for IC50: inhibition of EROD activity IC50, 15 s of incubation time (direct and direct/restore inhibitors), means and SE; for EROD kcat of P450 1B1 relative to controls / fold increase in EROD Km of P450 1B1: 1PP 66 nM; for EROD kcat of P450 1B1 relative to controls: after 6 min of incubation; for fold increase in EROD Km of P450 1B1: at 15 s; for EROD kcat of P450 1B1 relative to control, first decrease: initial stage of incubation
P450 1A1 [5] = biological target: T3, P450 1A1 (Homo sapiens, UniProt P04798); experiment: Quenching of P450 fluorescence with inhibitors, P450 1A1; format: binding
T3 sequence (P04798 1-512): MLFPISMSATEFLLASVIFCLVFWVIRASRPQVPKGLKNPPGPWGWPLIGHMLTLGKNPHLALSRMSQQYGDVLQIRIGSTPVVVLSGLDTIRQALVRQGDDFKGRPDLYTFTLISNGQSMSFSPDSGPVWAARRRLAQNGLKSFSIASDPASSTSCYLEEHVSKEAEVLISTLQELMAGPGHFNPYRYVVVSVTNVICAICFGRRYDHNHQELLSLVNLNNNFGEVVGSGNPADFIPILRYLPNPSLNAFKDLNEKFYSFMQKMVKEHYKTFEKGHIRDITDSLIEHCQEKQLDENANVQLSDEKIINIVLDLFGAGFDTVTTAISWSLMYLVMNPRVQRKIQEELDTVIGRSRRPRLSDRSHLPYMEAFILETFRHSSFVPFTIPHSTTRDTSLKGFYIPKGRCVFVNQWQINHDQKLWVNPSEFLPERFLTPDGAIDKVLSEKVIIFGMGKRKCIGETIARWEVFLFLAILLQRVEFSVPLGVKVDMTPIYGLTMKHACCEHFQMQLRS

P450 1B1 [6] = biological target: T2, P450 1B1; experiment: Spectral binding titrations with purified P450 1B1; conditions: for ΔAmax (ΔA~416-A~383) / wavelengths (peak/trough): 1 μM P450 1B1; for ΔAmax (ΔA~416-A~383): means ± S.E.; for wavelengths (peak/trough): pH 7.4
P450 1B1 [7] = biological target: T2, P450 1B1
P450 1A1 [8] = biological target: T3, P450 1A1; conditions: cited from earlier work
P450 1B1 [9] = biological target: T2, P450 1B1; conditions: cited from earlier work
P450 1A1 [10] = biological target: T3, P450 1A1; experiment: Inhibition of P450 1A1-dependent EROD activity; format: biochemical; conditions: for fold increase in EROD Km of P450 1A1: 1PP 66 nM, 3PPh 333 nM; for mechanism of inhibition of P450 1A1 EROD activity: 37 °C, 30 min
P450 1A2 [11] = biological target: T1, P450 1A2; experiment: Inhibition of P450 1A2-dependent EROD activity; format: biochemical; conditions: 37 °C
P450 1A2 [12] = biological target: T1, P450 1A2; conditions: cited from earlier work
P450 1A1 [13] = biological target: T3, P450 1A1; experiment: Quenching of inhibitor-derived fluorescence with P450 1A1; conditions: enzyme and inhibitor 10 nM; 25 °C
P450 1A2 [14] = biological target: T1, P450 1A2; experiment: Quenching of inhibitor-derived fluorescence with P450 1A2; conditions: enzyme and inhibitor 10 nM; 25 °C

| SMILES | Kd (P450 1A2 [1]) [µM] | PAH binding to P450 1B1 Bmax (P450 1B1 [3]) [%] | IC50 (P450 1B1 [4]) [µM] | Kd (P450 1A1 [5]) [µM] | Kd (P450 1B1 [2]) [µM] | Kd (P450 1B1 [6]) [µM] | wavelengths (peak/trough) (P450 1B1 [6]) | ΔAmax / Ks (P450 1B1 [7]) | mechanism of inhibition of P450 1A2 EROD activity (P450 1A2 [11]) | other results |
| --- | --- | --- | --- | --- | --- | --- | --- | --- | --- | --- |
| c1ccc2c(c1)-c1cccc3cccc-2c13 [FA, fluoranthene] | ~10 | 91 ± 2 | 0.015 ± 0.001 | ~10 |  |  |  |  |  | interaction with P450 1B1 (quenching of inhibitor fluorescence) (P450 1B1 [2]): not found |
| C=Cc1ccc2ccc3cccc4ccc1c2c34 [1VP, 1-vinylpyrene] | ~10 | 65 ± 2 | 0.088 ± 0.01 | ~10 | 0.0019 to 0.018 | 4.3 ± 0.5 | 416/383 | 0.021 |  | ΔAmax (ΔA~416-A~383) (P450 1B1 [6]): 0.092 ± 0.006 |
| c1ccc2c(c1)-c1cccc3c1c-2cc1ccccc13 [B[b]FA, benzo[b]fluoranthene] | ~10 | 91 ± 2 | 0.005 ± 0.001 | ~10 |  |  |  |  |  | interaction with P450 1B1 (quenching of inhibitor fluorescence) (P450 1B1 [2]): not found |
| CC#Cc1ccc2ccc3cccc4ccc1c2c34 [1PP, 1-(1-propynyl)pyrene] | ~10 | 69 ± 1 | 0.022 ± 0.003 | ~10 | 0.0019 to 0.018 | 2.7 ± 0.4 | 416/383 | 0.016 | mechanism-based manner | mechanism of inhibition of P450 1A1 (P450 1A1 [8]): mechanism-based manner; mechanism of inhibition of P450 1B1 (P450 1B1 [9]): direct inhibitors; fold increase in EROD Km of P450 1A1 (P450 1A1 [10]; at 360 s): 10 fold; fold increase in EROD Km of P450 1A1 (P450 1A1 [10]; initial incubation time): ~ 8 fold; mechanism of inhibition of P450 1A1 EROD activity (P450 1A1 [10]): mechanism-based inhibitors; EROD kcat of P450 1B1 relative to controls (P450 1B1 [4]; 3PPh 33 nM): 44%; fold increase in EROD Km of P450 1B1 (P450 1B1 [4]; 3PPh 33 nM): 6.8 fold; EROD kcat of P450 1B1 relative to control, first decrease (P450 1B1 [4]): ~ one-fifth |
| c1ccc2c(c1)cc1ccc3cccc4ccc2c1c34 [B[a]P, benzo[a]pyrene] | ~10 |  | 0.031 ± 0.004 | ~10 | 0.011 |  |  |  | directly inhibited by low concentration of B[a]P, but the inhibition was increased with time at higher B[a]P concentrations | mechanism of inhibition of P450 1A2 (P450 1A2 [12]): mechanism-based manner; half-maximal time (t1/2) to decrease B[a]P emission (P450 1B1 [2]; 2.5 nM B[a]P): 33 s; half-maximal time (t1/2) to decrease B[a]P emission (P450 1B1 [2]; 5 nM B[a]P): 15 s; half-maximal time (t1/2) to decrease B[a]P emission (P450 1B1 [2]; 10 nM B[a]P): 7.5 s |
| CC#Cc1ccc2ccc3ccccc3c2c1 [3PPh, 3-(1-propynyl)phenanthrene] |  | 73 ± 5 | 0.04 ± 0.003 |  |  | 3.1 ± 0.4 | 415/383 | 0.019 | mechanism-based manner | ΔAmax (ΔA~416-A~383) (P450 1B1 [6]): 0.060 ± 0.004; fold increase in EROD Km of P450 1A1 (P450 1A1 [10]; at 360 s): 25 fold; fold increase in EROD Km of P450 1A1 (P450 1A1 [10]; initial incubation time): ~ 8 fold; mechanism of inhibition of P450 1A1 EROD activity (P450 1A1 [10]): mechanism-based inhibitors; EROD kcat of P450 1B1 relative to controls (P450 1B1 [4]; 3PPh 33 nM): 56%; fold increase in EROD Km of P450 1B1 (P450 1B1 [4]; 3PPh 33 nM): 2.3 fold; EROD Km of P450 1B1 relative to control value (P450 1B1 [4]; 3PPh 33 nM, 6 min of incubation): one-third; EROD kcat of P450 1B1 relative to control, first decrease (P450 1B1 [4]): ~ one-fifth |
| C#Cc1ccc2ccc3cccc4ccc1c2c34 [1EP, 1-ethynylpyrene] |  | 74 ± 1 | 0.031 ± 0.004 |  | 0.0019 to 0.018 | 2.9 ± 1 | 416/383 | 0.017 |  | mechanism of inhibition of P450 1A1 (P450 1A1 [8]): mechanism-based manner; fluorescence quenching with P450 1A1 (P450 1A1 [13]): to a lesser extent with P450 1A1 than 1B1; mechanism of inhibition of P450 1B1 (P450 1B1 [9]): direct inhibitors; interaction with P450 1A2 (fluorescence quenching) (P450 1A2 [14]): No interactions |
